Results taken from patent US9187496B2 (priority 2009, dated 2015).

Tests used:
[1] = tested on: HCV genotype 1b Conl strain subgenomic luciferase replicon (Zluc); test: Luciferase replicon assay, genotype 1b; type: cell-based; details: Hepatitis C virus, 72 h, read-out: EC50 1b
Experimental: (§1) The HCV luciferase replicon assay measures the ability of a test compound to inhibit HCV replication in cell culture after 3 days of treatment in a human hepatoma cell line (Huh-7) bearing a HCV replicon containing a luciferase-neomycin phosphotransferase fusion gene. The inhibition of HCV replication was measured by quantification of luciferase protein expression. Briefly, Huh-7 cells containing either the HCV genotype 1a H77 strain or genotype 1b Conl strain subgenomic luciferase replicon (H1a-luc or Zluc, respectively) were grown in DMEM containing glucose, L-glutamine and sodium pyruvate, 10% fetal bovine serum (FBS), 100 IU/mL penicillin, 100 μg/mL streptomycin, 2 mM GlutaMAX, non-essential amino acids and 0.25 (H1a-luc) or 0.5 (Zluc) mg/mL G418. GlutaMAX was obtained from Invitrogen, Corp.; all other media reagents were obtained from Mediatech, Inc. For dose-response testing, the cells were seeded in 96-well plates at 1×10^4 (H1a-luc) or 7.5×10^3 (Zluc) cells/well in a volume of 50 μL, and incubated at 37° C./5% CO2. Three hours after plating, 50 μL of ten 5-fold serial dilutions of compound were added, and cell cultures were incubated at 37° C./5% CO2 for 72 hours. In all cases, Huh-7 cells lacking the HCV replicon served as negative control. To assess luciferase expression, the media/compound was removed from the plates and ONE-glo Luciferase assay reagent (Promega) was added to each well. The assay plates were shaken for 3 minutes at room temperature and luciferase activity for each well was measured with a 1 sec read time on the Victor^3V multilabel counter using a 700 nm cut-off filter (Perkin Elmer). EC50 values were calculated from dose response curves from the resulting best-fit equations determined by Microsoft Excel and XLfit 4.1 software.

[2] = Cytotoxicity evaluation in luciferase replicon cells (Cell Titer 96 AQueous One); type: cell-based, human; details: human; Table 1B, cellular viability
Experimental: For cytotoxicity evaluation, H1a-luc or Zluc cells were treated with compounds as described above and cellular viability was monitored using the Cell Titer 96 AQueous One Solution Cell Proliferation Assay (Promega). Plates were then read at 490 nm in a Victor^3V 1420 multilabel counter (Perkin Elmer) and CC50 concentrations were determined using Microsoft Excel and XLfit 4.1 software.

[3] = tested on: HCV genotype 4a-specific NS5A gene within the 1b-replicon; test: Luciferase replicon assay, NS5A-intergenotypic stable cell line genotype 4a; type: cell-based; details: Hepatitis C virus, read-out: EC50 4a
Excerpt: (§2) The nucleotide sequences of the NS5A region of genotype 2a (GenBank Accession #AB047639), genotype 3a (GenBank Accession #D17763), and genotype 4a (GenBank Accession#DQ418788) were synthesized by an outside vendor. The NS5A region of each of these genotypes included the first 11 amino acids of the protease recognition sequence of genotype 1b, as well as the last 10 amino acids of genotype 1b. The NS5A gene cassettes were excised with site specific restriction endonucleases and ligated into a ZS11-luciferase genotype 1b backbone (backbone contains the genotype 1b NS3 protease, NS4a, NS4b, and NS5b coding regions) with similarly cut restriction enzyme sites. Thus, the newly constructed plasmid contains a genotype 2a-, 3a- or 4a-specific NS5A gene within the 1b-replicon.
(§3) These new intergenotypic plasmids were used to establish stable cell lines. RNA was generated from the NS5A intergenotypic plasmids and used in conjunction with a lipofectin reagent to transfect a cured Huh7 cell line. Transfected cells were selected for with G418. After selection has occurred the stable cell lines were propagated, tested for luciferase activity, and RT-PCR with genotype specific primers (either 1a, 2a, 3a, or 4a). Stable cell lines containing the intergenotypic replicon were then fully sequenced and analysed for proper expression of NS3, NS5A and NS5B proteins.
(§4) Drug titration analysis was performed using the luciferase replicon assay described herein.
as §1

[4] = tested on: HCV genotype 3a-specific NS5A gene within the 1b-replicon; test: Luciferase replicon assay, NS5A-intergenotypic stable cell line genotype 3a; type: cell-based; details: Hepatitis C virus, read-out: EC50 3a
Excerpt: as §2, §3, §4, §1

[5] = tested on: HCV genotype 2a-specific NS5A gene within the 1b-replicon; test: Luciferase replicon assay, NS5A-intergenotypic stable cell line genotype 2a; type: cell-based; details: Hepatitis C virus, read-out: EC50 2a
Excerpt: as §2, §3, §4, §1

SMILES | EC50 [1] [nM] | CC50 at 72 h [2] [nM] | EC50 [3] [nM] | EC50 [4] [nM] | EC50 [5] [nM]
COC(=O)N[C@H](C(=O)N1CCC[C@H]1c1nc2cc(-c3csc4c(-c5ccc(-c6cnc([C@@H]7CCCN7C(=O)[C@H](NC(=O)OC)c7ccccc7)[nH]6)cc5)csc34)ccc2[nH]1)C(C)C [Compound A169, [(S)-1-((S)-2-{6-[6-(4-{(S)-2-[1-((R)-2-methoxycarbonylamino-2-phenyl-acetyl)-pyrrolidin-2-yl]-3H-imidazol-4-yl}-phenyl)-thieno[3,2-b]thiophen-3-yl]-1H-benzoimidazol-2-yl}-pyrrolidine-1-carbonyl)-2-methyl-propyl]-carbamic acid methyl ester] | < 0.1 | > 75000 | < 0.1 | < 0.1 | < 0.1
COC(=O)N[C@H](C(=O)N1CCC[C@H]1c1nc2ccc(-c3cc4sc(-c5ccc(-c6c[nH]c([C@@H]7CCCN7C(=O)[C@H](NC(=O)OC)c7ccccc7)n6)cc5)cc4s3)cc2[nH]1)C(C)C [Compound A215, [(S)-1-((S)-2-{6-[5-(4-{(S)-2-[1-((R)-2-methoxycarbonylamino-2-phenyl-acetyl)-pyrrolidin-2-yl]-1H-imidazol-4-yl}-phenyl)-thieno[3,2-b]thiophen-2-yl)-1H-benzoimidazol-2-yl}-pyrrolidine-1-carbonyl)-2-methyl-propyl]-carbamic acid methyl ester] | < 0.1 | > 75000 | < 0.1 | < 0.1 | < 0.1
COC(=O)N[C@H](C(=O)N1CCCC1c1ncc(-c2cc3sc(-c4ccc(-c5cnc([C@@H]6CCCN6C(=O)[C@H](NC(=O)OC)c6ccccc6)[nH]5)cc4)cc3s2)[nH]1)C(C)C (stereo partly shown) [Compound A217] | < 0.1 | > 75000 | < 0.1 | < 0.1 | < 0.1
COC(=O)N[C@H](C(=O)N1CCC[C@H]1c1ncc(-c2ccc(-c3csc4c(-c5ccc6[nH]c([C@@H]7CCCN7C(=O)[C@H](NC(=O)OC)c7ccccc7)nc6c5)csc34)cc2)[nH]1)C(C)C [Compound A172, [(S)-1-((S)-2-{5-[4-(6-{(S)-2-[1-((R)-2-methoxycarbonylamino-2-phenyl-acetyl)-pyrrolidin-2-yl]-3H-benzoimidazol-5-yl}-thieno[3,2-b]thiophen-3-yl)-phenyl]-1H-imidazol-2-yl}-pyrrolidine-1-carbonyl)-2-methyl-propyl]-carbamic acid methyl ester] | < 0.1 | > 75000 | < 0.1 | < 0.1 | < 0.1
COC(=O)N[C@H](C(=O)N1CCCC1c1nc(-c2cc3sc(-c4cnc([C@@H]5CCCN5C(=O)[C@@H](NC(=O)OC)C(C)C)[nH]4)cc3s2)c[nH]1)C(C)C (stereo partly shown) [Compound A101] | < 0.1 | > 75000 | 1 to 10 | 1 to 10 | 1 to 10
